According to PubChem BioAssay (NCI):
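Briefly, cells in 96-well plates were exposed to five compound concentrations for 48 h, and endpoints were estimated by linear interpolation. GI50 = concentration required for 50% inhibition of growth. At the TGI there is no net growth.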

Experiments:
Experiment in all cases: inhibition of tumour cell growth, NCI panel, 48 h
SK-MEL-2 melanoma = tested on: SK-MEL-2 melanoma
UACC-62 melanoma = tested on: UACC-62 melanoma
MDA-MB-231 breast = tested on: MDA-MB-231 breast
OVCAR-8 ovarian = tested on: OVCAR-8 ovarian
DU-145 prostate = tested on: DU-145 prostate
NCI-H522 lung = tested on: NCI-H522 lung
MDA-MB-468 breast = tested on: MDA-MB-468 breast
OVCAR-4 ovarian = tested on: OVCAR-4 ovarian
LOX IMVI melanoma = tested on: LOX IMVI melanoma
SF-539 CNS = tested on: SF-539 CNS
UO-31 renal = tested on: UO-31 renal
A549 NSCLC = tested on: A549 NSCLC
IGROV1 ovarian = tested on: IGROV1 ovarian
CCRF-CEM leukemia = tested on: CCRF-CEM leukemia
SK-MEL-5 melanoma = tested on: SK-MEL-5 melanoma
NCI-H23 lung = tested on: NCI-H23 lung
SK-OV-3 ovarian = tested on: SK-OV-3 ovarian
NCI-H226 lung = tested on: NCI-H226 lung
KM12 colon = tested on: KM12 colon
BT-549 breast = tested on: BT-549 breast
A498 renal = tested on: A498 renal
OVCAR-5 ovarian = tested on: OVCAR-5 ovarian
MOLT-4 leukemia = tested on: MOLT-4 leukemia
MALME-3M melanoma = tested on: MALME-3M melanoma
HOP-62 NSCLC = tested on: HOP-62 NSCLC
HCT-116 colon = tested on: HCT-116 colon
M14 melanoma = tested on: M14 melanoma
SK-MEL-28 melanoma = tested on: SK-MEL-28 melanoma
RXF 393 renal = tested on: RXF 393 renal
SF-295 CNS = tested on: SF-295 CNS
EKVX NSCLC = tested on: EKVX NSCLC
CAKI-1 renal = tested on: CAKI-1 renal
MCF7 breast = tested on: MCF7 breast
HL-60(TB) leukemia = tested on: HL-60(TB) leukemia
PC-3 prostate = tested on: PC-3 prostate
SF-268 CNS = tested on: SF-268 CNS
SN12C renal = tested on: SN12C renal
HCT-15 colon = tested on: HCT-15 colon
COLO 205 colon = tested on: COLO 205 colon
786-0 renal = tested on: 786-0 renal
SNB-19 CNS = tested on: SNB-19 CNS
TK-10 renal = tested on: TK-10 renal
ACHN renal = tested on: ACHN renal
SR leukemia = tested on: SR leukemia
T-47D breast = tested on: T-47D breast
MDA-MB-435 = tested on: MDA-MB-435
HOP-92 NSCLC = tested on: HOP-92 NSCLC
RPMI-8226 leukemia = tested on: RPMI-8226 leukemia
UACC-257 melanoma = tested on: UACC-257 melanoma
OVCAR-3 ovarian = tested on: OVCAR-3 ovarian
HS 578T breast = tested on: HS 578T breast

Structure (SMILES): COc1ccc2[nH]cc(-c3cc4nc(-c5cn(C)c6ncccc56)cc(N)n4n3)c2c1
- GI50 (SK-MEL-2 melanoma): 19.3 µM
- TGI (SK-MEL-2 melanoma): 53.2 µM
- GI50 (UACC-62 melanoma): 14.2 µM
- TGI (UACC-62 melanoma): 27.8 µM
- GI50 (MDA-MB-231 breast): 2.33 µM
- TGI (MDA-MB-231 breast): 5.2 µM
- GI50 (OVCAR-8 ovarian): 4.93 µM
- TGI (OVCAR-8 ovarian): > 100 µM
- GI50 (DU-145 prostate): 6.36 µM
- TGI (DU-145 prostate): > 100 µM
- GI50 (NCI-H522 lung): 4.48 µM
- TGI (NCI-H522 lung): > 100 µM
- GI50 (MDA-MB-468 breast): 1.53 µM
- TGI (MDA-MB-468 breast): 3.12 µM
- GI50 (OVCAR-4 ovarian): 2.06 µM
- TGI (OVCAR-4 ovarian): 5.15 µM
- GI50 (LOX IMVI melanoma): 2.02 µM
- TGI (LOX IMVI melanoma): 3.6 µM
- GI50 (SF-539 CNS): 1.63 µM
- TGI (SF-539 CNS): 3.05 µM
- GI50 (UO-31 renal): 3.59 µM
- TGI (UO-31 renal): 17.5 µM
- GI50 (A549 NSCLC): 2.75 µM
- TGI (A549 NSCLC): > 100 µM
- GI50 (IGROV1 ovarian): 2.12 µM
- TGI (IGROV1 ovarian): 4.93 µM
- GI50 (CCRF-CEM leukemia): 2.56 µM
- TGI (CCRF-CEM leukemia): > 100 µM
- GI50 (SK-MEL-5 melanoma): 6.18 µM
- TGI (SK-MEL-5 melanoma): 19.3 µM
- GI50 (NCI-H23 lung): 6.29 µM
- TGI (NCI-H23 lung): 24.7 µM
- GI50 (SK-OV-3 ovarian): 52.8 µM
- TGI (SK-OV-3 ovarian): > 100 µM
- GI50 (NCI-H226 lung): 20.4 µM
- TGI (NCI-H226 lung): 57.2 µM
- GI50 (KM12 colon): 3.41 µM
- TGI (KM12 colon): > 100 µM
- GI50 (BT-549 breast): 7.03 µM
- TGI (BT-549 breast): 38.3 µM
- GI50 (A498 renal): 25.3 µM
- TGI (A498 renal): 49.4 µM
- GI50 (OVCAR-5 ovarian): 4.66 µM
- TGI (OVCAR-5 ovarian): 19.2 µM
- GI50 (MOLT-4 leukemia): 1.79 µM
- TGI (MOLT-4 leukemia): > 100 µM
- GI50 (MALME-3M melanoma): 5.02 µM
- TGI (MALME-3M melanoma): 18.3 µM
- GI50 (HOP-62 NSCLC): 10.2 µM
- TGI (HOP-62 NSCLC): > 100 µM
- GI50 (HCT-116 colon): 3.6 µM
- TGI (HCT-116 colon): 33.5 µM
- GI50 (M14 melanoma): 4.56 µM
- TGI (M14 melanoma): 32.3 µM
- GI50 (SK-MEL-28 melanoma): 10.8 µM
- TGI (SK-MEL-28 melanoma): 23.4 µM
- GI50 (RXF 393 renal): 1.67 µM
- TGI (RXF 393 renal): 3.27 µM
- GI50 (SF-295 CNS): 1.68 µM
- TGI (SF-295 CNS): 3.26 µM
- GI50 (EKVX NSCLC): 8.55 µM
- TGI (EKVX NSCLC): 62.3 µM
- GI50 (CAKI-1 renal): 4.03 µM
- TGI (CAKI-1 renal): 23.5 µM
- GI50 (MCF7 breast): 2.01 µM
- TGI (MCF7 breast): 4.94 µM
- GI50 (HL-60(TB) leukemia): 1.48 µM
- TGI (HL-60(TB) leukemia): 4.78 µM
- GI50 (PC-3 prostate): 6.67 µM
- TGI (PC-3 prostate): > 100 µM
- GI50 (SF-268 CNS): 13.5 µM
- TGI (SF-268 CNS): > 100 µM
- GI50 (SN12C renal): 6.93 µM
- TGI (SN12C renal): 23.8 µM
- GI50 (HCT-15 colon): 1.91 µM
- TGI (HCT-15 colon): 4.53 µM
- GI50 (COLO 205 colon): 4.71 µM
- TGI (COLO 205 colon): > 100 µM
- GI50 (786-0 renal): 1.54 µM
- TGI (786-0 renal): 2.92 µM
- GI50 (SNB-19 CNS): 8.67 µM
- TGI (SNB-19 CNS): 32.2 µM
- GI50 (TK-10 renal): 19.1 µM
- TGI (TK-10 renal): > 100 µM
- GI50 (ACHN renal): 3.48 µM
- TGI (ACHN renal): 12.5 µM
- GI50 (SR leukemia): 2.55 µM
- TGI (SR leukemia): > 100 µM
- GI50 (T-47D breast): 5.77 µM
- TGI (T-47D breast): 90.1 µM
- GI50 (MDA-MB-435): 10.8 µM
- TGI (MDA-MB-435): 27.8 µM
- GI50 (HOP-92 NSCLC): 4.84 µM
- TGI (HOP-92 NSCLC): 51.7 µM
- GI50 (RPMI-8226 leukemia): 3.05 µM
- TGI (RPMI-8226 leukemia): > 100 µM
- GI50 (UACC-257 melanoma): 21.5 µM
- TGI (UACC-257 melanoma): 55.4 µM
- GI50 (OVCAR-3 ovarian): 12.5 µM
- TGI (OVCAR-3 ovarian): > 100 µM
- GI50 (HS 578T breast): 20.3 µM
- TGI (HS 578T breast): 64.6 µM
